For 13 compounds, TGI and GI50 results are on record in PubChem BioAssay (NCI).

Test systems include HS 578T breast; SR leukemia; M14 melanoma; HOP-62 NSCLC; T-47D breast; UACC-257 melanoma.
Assay in all cases: DTP human tumour cell line panel, 48 h

Where “and” joins values, the source holds several entries; their conditions need not be identical. Equal entries are not always repeated.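 All cell lines were grown in 96-well plates and treated with compound for 48 hours. The concentration for 50% growth inhibition is given as GI50. Definition used: TGI = concentration required for complete inhibition of growth.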

Take `Cc1cc2c(C(C)C)c(O)c(O)c(C=Nc3cc(C(F)(F)F)ccc3Cl)c2c(O)c1-c1c(C)cc2c(C(C)C)c(O)c(O)c(C=Nc3cc(C(F)(F)F)ccc3Cl)c2c1O`: the concentration for total growth inhibition (TGI) with HS 578T breast, in the assay with SR leukemia, in the assay with M14 melanoma, in the assay with HOP-62 NSCLC, in the assay with T-47D breast and with UACC-257 melanoma was greater than 100 µM in each case.
Consider `Cc1cc(N(CCNc2ccnc3cc(Cl)ccc23)Cc2ccc3c(c2)OCO3)nc(N2CCN(C)CC2)n1`, for which the GI50 (as a rule, the concentration that inhibits growth by half) in the assay on HS 578T breast is 1.87 µM; in the assay with SR leukemia, 1.5 µM; with M14 melanoma it was 1.89 µM; in the assay on HOP-62 NSCLC, 2.22 µM; in the assay on T-47D breast, 2.05 µM; in the assay with UACC-257 melanoma, 2.01 µM. In addition, the total growth inhibition concentration (TGI) (in general, the concentration at which net growth stops) in the assay on HS 578T breast was determined as 5.2 µM; in the assay on SR leukemia it was 4.43 µM; in the assay with M14 melanoma it was 3.55 µM; in the assay with HOP-62 NSCLC it was 15.4 µM; with T-47D breast it was 4.64 µM; with UACC-257 melanoma, 3.79 µM.
As to `COc1ccc(C2SC(N)=Nc3c2c(C)nn3C(=O)c2ccc(Cl)cc2)cc1OC` (centres undefined), the concentration for total growth inhibition (TGI) in the assay on HS 578T breast, with SR leukemia, in the assay on M14 melanoma, in the assay with HOP-62 NSCLC, with T-47D breast and in the assay on UACC-257 melanoma was greater than 10 µM in each case.
On to `Cc1ccc(C(=O)/C(=C/c2ccc([N+](=O)[O-])cc2)S(=O)Cc2ccccc2)cc1` (centres undefined), for which the GI50 in the assay with HS 578T breast is 2.58 µM; in the assay on SR leukemia, 0.539 µM; in the assay on M14 melanoma, 1.48 µM; in the assay on HOP-62 NSCLC, 2.02 µM; in the assay on UACC-257 melanoma, 1.65 µM. The TGI with HS 578T breast came out at 8.87 µM; in the assay with SR leukemia it was 5.21 µM; in the assay with M14 melanoma it was 2.94 µM; with HOP-62 NSCLC it was 4.46 µM; in the assay with UACC-257 melanoma it was 3.08 µM.
Take `Nc1c(C(=O)Nc2ccc([As](=O)(O)O)cc2)cnc2nnnn12`: the TGI in the assay with SR leukemia, in the assay on M14 melanoma, in the assay with HOP-62 NSCLC, with T-47D breast and in the assay on UACC-257 melanoma was greater than 100 µM in each case.
With `Clc1ccccc1NN(Cc1ccccn1)c1ccccc1Cl`, the concentration for total growth inhibition (TGI) with HS 578T breast is 63.9 µM; in the assay on SR leukemia, 34.1 µM; in the assay with M14 melanoma it was 38.3 µM; in the assay with HOP-62 NSCLC it was 34.3 µM; in the assay with T-47D breast, greater than 100 µM.
`COc1cc(-c2csc(NC(=O)c3cc(C(F)(F)F)cc(C(F)(F)F)c3)n2)cc(OC)c1OC`: the GI50 was 3.14 µM in the assay with HS 578T breast; 2.67 µM in the assay on SR leukemia; 2.91 µM with M14 melanoma; 3.03 µM in the assay with HOP-62 NSCLC; 1.84 µM in the assay on T-47D breast. Moreover, the total growth inhibition concentration (TGI) with HS 578T breast was greater than 100 µM; with SR leukemia, 11.6 µM; with M14 melanoma, greater than 100 µM; in the assay on HOP-62 NSCLC, greater than 100 µM; in the assay on T-47D breast, 6.29 µM.
In the case of `O=C(CC(C(=O)c1cccs1)c1ccc2c(c1)OCO2)c1ccc(Br)cc1` (centres undefined), the TGI in the assay on SR leukemia, in the assay on M14 melanoma, in the assay with HOP-62 NSCLC, in the assay on T-47D breast and in the assay on UACC-257 melanoma was greater than 100 µM each time.
`CN1C2CC(C#N)C1C=CC2=O` (centres undefined): the GI50 is 35.4 µM and > 100 µM in the assay on HS 578T breast; 24.2 µM and 86.1 µM with SR leukemia; 15.9 µM and > 100 µM in the assay with M14 melanoma; 27.6 µM and > 100 µM in the assay with HOP-62 NSCLC; 17.5 µM and > 100 µM in the assay on T-47D breast. Also, the TGI with HS 578T breast is greater than 100 µM; in the assay with SR leukemia, greater than 100 µM; in the assay on M14 melanoma it was 30.7 µM and > 100 µM; with HOP-62 NSCLC, 85.1 µM and > 100 µM; in the assay on T-47D breast, 45.1 µM and > 100 µM.
As for `COc1cc(Nc2ccnc(N3CCN(c4ccnc5cc(Cl)ccc45)CC3)n2)cc(OC)c1`, the GI50 in the assay with HS 578T breast was 2.59 µM; with HOP-62 NSCLC, 1.98 µM; in the assay on UACC-257 melanoma, 3.35 µM. Further, the TGI in the assay on HS 578T breast is greater than 100 µM; with HOP-62 NSCLC it was 14.2 µM; in the assay with UACC-257 melanoma it was greater than 100 µM.
With `CSc1ccc(C2=Nn3c(nnc3-c3ccc(F)c(Cl)c3)SC2)cc1`, the GI50 in the assay with HS 578T breast is 10 µM; with M14 melanoma, 6.73 µM; with HOP-62 NSCLC, 5.84 µM; with T-47D breast it was 71 µM; in the assay on UACC-257 melanoma, 67.6 µM. The concentration for total growth inhibition (TGI) in the assay with HS 578T breast is 36.6 µM; in the assay with M14 melanoma it was 28.4 µM; with HOP-62 NSCLC, 19.5 µM; in the assay with T-47D breast it was greater than 100 µM; in the assay on UACC-257 melanoma, greater than 100 µM.
Turning to `CC(=O)c1cccc(N(/C=C/C(=O)C(F)(F)F)CC(=O)c2ccc(Cl)cc2)c1`, the GI50 in the assay with HS 578T breast, in the assay with M14 melanoma, in the assay with HOP-62 NSCLC, in the assay with T-47D breast and with UACC-257 melanoma was greater than 100 µM throughout. Besides, the TGI with HS 578T breast, in the assay on M14 melanoma, with HOP-62 NSCLC, in the assay with T-47D breast and in the assay with UACC-257 melanoma was greater than 100 µM in each case.
On to `O=c1oc2ccccc2c(O)c1C=NC(=S)c1ccncc1`, for which the TGI with M14 melanoma, in the assay with HOP-62 NSCLC, in the assay on T-47D breast and with UACC-257 melanoma was greater than 100 µM each time.
